Measurements taken from patent US9708314B2, “Heterocyclic amide compound” (NISSAN CHEMICAL INDUSTRIES, LTD., priority 2013, dated 2017).

Legend:
Format in all cases: in vivo
[1] = test system: directly sowed Oryza sativa; experiment: Test Example 3: effect on crop by application to foliage (Wagner pot, water depth 0.1-0.5 cm); settings: Nineteenth Table; application to foliage; application herbicide amount 320 g/ha
Method in brief: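 Scores (0–5) reflect herbicidal ratio three weeks after a foliar spray: 0 is 5% or less, 5 is 90% or more. Plants had grown 14 days in alluvial soil pots in a 25–30 °C greenhouse before treatment with water-diluted emulsion at a set g/ha.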

[2] = test system: Stellaria media; experiment: Test Example 4: herbicidal effect by application to foliage (diluvial soil, plastic box); settings: for P (Stellaria media) herbicidal effect grade: foliage application; for P: herbicidal effect on Stellaria media: application to foliage, application herbicide amount 320 g/ha
Method in brief: (§1)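 Greenhouse plants (25° C. to 30° C., 14 d, diluvial soil) receive a foliar spray of water-diluted emulsifiable formulation at defined g/ha. Grading after 3 weeks uses a six-step herbicidal-ratio scale, with 4 covering 70% to <90% and 1 covering 5% to <20%.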

[3] = test system: Galium spurium; experiment: as above; settings: for Q (Galium spurium) herbicidal effect grade: foliage application; for Q: herbicidal effect on Galium spurium: application to foliage, application herbicide amount 320 g/ha
Method in brief: as §1

[4] = test system: Alopecurus myosuroides; experiment: as above; settings: for J (Alopecurus myosuroides) herbicidal effect grade: foliage application; for J: herbicidal effect on Alopecurus myosuroides: application to foliage, application herbicide amount 320 g/ha
Method in brief: as §1

[5] = test system: Chenopodium album; experiment: as above; settings: for O (Chenopodium album) herbicidal effect grade: foliage application; for O: herbicidal effect on Chenopodium album: application to foliage, application herbicide amount 320 g/ha
Method in brief: as §1

[6] = test system: Echinochloa crus-galli var. crus-galli; experiment: as above; settings: for H (Echinochloa crus-galli var. crus-galli) herbicidal effect grade: foliage application; for H: herbicidal effect on Echinochloa crus-galli var. crus-galli: application to foliage, application herbicide amount 320 g/ha
Method in brief: as §1

[7] = test system: Apera spica-venti.; experiment: as above; settings: for L (Apera spica-venti.) herbicidal effect grade: foliage application; for L: herbicidal effect on Apera spica-venti.: application to foliage, application herbicide amount 320 g/ha
Method in brief: as §1

[8] = test system: Avena fatua; experiment: as above; settings: for I (Avena fatua) herbicidal effect grade: foliage application; for I: herbicidal effect on Avena fatua: application to foliage, application herbicide amount 320 g/ha
Method in brief: as §1

[9] = test system: Veronica persica; experiment: as above; settings: for R (Veronica persica) herbicidal effect grade: foliage application; for R: herbicidal effect on Veronica persica: application to foliage, application herbicide amount 320 g/ha
Method in brief: as §1

[10] = test system: Abutilon theophrasti; experiment: as above; settings: for M (Abutilon theophrasti) herbicidal effect grade: foliage application; for M: herbicidal effect on Abutilon theophrasti: application to foliage, application herbicide amount 320 g/ha
Method in brief: as §1

[11] = test system: Amaranthus retroflexus; experiment: as above; settings: for N (Amaranthus retroflexus) herbicidal effect grade: foliage application; for N: herbicidal effect on Amaranthus retroflexus: application to foliage, application herbicide amount 320 g/ha
Method in brief: as §1

[12] = test system: Lolium multiflorum Lam.; experiment: as above; settings: for K (Lolium multiflorum Lam.) herbicidal effect grade: foliage application; for K: herbicidal effect on Lolium multiflorum Lam.: application to foliage, application herbicide amount 320 g/ha
Method in brief: as §1

[13] = test system: Digitaria ciliaris; experiment: as above; settings: for F (Digitaria ciliaris) herbicidal effect grade: foliage application; for F: herbicidal effect on Digitaria ciliaris: application to foliage, application herbicide amount 320 g/ha
Method in brief: as §1

[14] = test system: Setaria viridis; experiment: as above; settings: for G (Setaria viridis) herbicidal effect grade: foliage application; for G: herbicidal effect on Setaria viridis: application to foliage, application herbicide amount 320 g/ha
Method in brief: as §1

[15] = Application herbicide amount 320 g/ha

Row | SMILES | b (effect on crop grade) [1] | P: herbicidal effect on Stellaria media [2] | Q: herbicidal effect on Galium spurium [3] | J: herbicidal effect on Alopecurus myosuroides [4] | O: herbicidal effect on Chenopodium album [5] | H: herbicidal effect on Echinochloa crus-galli var. crus-galli [6] | L: herbicidal effect on Apera spica-venti. [7] | I: herbicidal effect on Avena fatua [8] | R: herbicidal effect on Veronica persica [9] | M: herbicidal effect on Abutilon theophrasti [10] | N: herbicidal effect on Amaranthus retroflexus [11] | K: herbicidal effect on Lolium multiflorum Lam. [12] | F: herbicidal effect on Digitaria ciliaris [13] | G: herbicidal effect on Setaria viridis [14] | also measured
1 | Cn1nnnc1NC(=O)c1ccc(C(F)(F)F)n2c(C3=NOC(C)(C)C3)nnc12 [2-028] | 5 (Herbicidal ratio of 90% or more (almost completely withered)) |  |  |  |  |  |  |  |  |  |  |  |  |  | P (Stellaria media) herbicidal effect grade ([2]; 320 g/ha): 5 (Herbicidal ratio of 90% or more (almost completely withered)); Q (Galium spurium) herbicidal effect grade ([3]; 320 g/ha): 4 (Herbicidal ratio of 70% or more and less than 90%); J (Alopecurus myosuroides) herbicidal effect grade ([4]; 320 g/ha): 4 (Herbicidal ratio of 70% or more and less than 90%); O (Chenopodium album) herbicidal effect grade ([5]; 320 g/ha): 5 (Herbicidal ratio of 90% or more (almost completely withered)); H (Echinochloa crus-galli var. crus-galli) herbicidal effect grade ([6]; 320 g/ha): 5 (Herbicidal ratio of 90% or more (almost completely withered)); L (Apera spica-venti.) herbicidal effect grade ([7]; 320 g/ha): 5 (Herbicidal ratio of 90% or more (almost completely withered)); I (Avena fatua) herbicidal effect grade ([8]; 320 g/ha): 4 (Herbicidal ratio of 70% or more and less than 90%); R (Veronica persica) herbicidal effect grade ([9]; 320 g/ha): 5 (Herbicidal ratio of 90% or more (almost completely withered)); M (Abutilon theophrasti) herbicidal effect grade ([10]; 320 g/ha): 5 (Herbicidal ratio of 90% or more (almost completely withered)); N (Amaranthus retroflexus) herbicidal effect grade ([11]; 320 g/ha): 5 (Herbicidal ratio of 90% or more (almost completely withered)); K (Lolium multiflorum Lam.) herbicidal effect grade ([12]; 320 g/ha): 4 (Herbicidal ratio of 70% or more and less than 90%); F (Digitaria ciliaris) herbicidal effect grade ([13]; 320 g/ha): 5 (Herbicidal ratio of 90% or more (almost completely withered)); G (Setaria viridis) herbicidal effect grade ([14]; 320 g/ha): 5 (Herbicidal ratio of 90% or more (almost completely withered))
2 | Cc1nnc(NC(=O)c2ccc(C(F)(F)F)n3c(N4CC[S+]([O-])CC4)nnc23)o1 [1-119] | 3 (Herbicidal ratio of 40% or more and less than 70%) |  |  |  |  |  |  |  |  |  |  |  |  |  | P (Stellaria media) herbicidal effect grade [2, 15]: 4 (Herbicidal ratio of 70% or more and less than 90%); Q (Galium spurium) herbicidal effect grade [3, 15]: 4 (Herbicidal ratio of 70% or more and less than 90%); J (Alopecurus myosuroides) herbicidal effect grade [4, 15]: 3 (Herbicidal ratio of 40% or more and less than 70%); O (Chenopodium album) herbicidal effect grade [5, 15]: 5 (Herbicidal ratio of 90% or more (almost completely withered)); H (Echinochloa crus-galli var. crus-galli) herbicidal effect grade [6, 15]: 5 (Herbicidal ratio of 90% or more (almost completely withered)); L (Apera spica-venti.) herbicidal effect grade [7, 15]: 3 (Herbicidal ratio of 40% or more and less than 70%); I (Avena fatua) herbicidal effect grade [8, 15]: 3 (Herbicidal ratio of 40% or more and less than 70%); R (Veronica persica) herbicidal effect grade [9, 15]: 5 (Herbicidal ratio of 90% or more (almost completely withered)); M (Abutilon theophrasti) herbicidal effect grade [10, 15]: 5 (Herbicidal ratio of 90% or more (almost completely withered)); N (Amaranthus retroflexus) herbicidal effect grade [11, 15]: 5 (Herbicidal ratio of 90% or more (almost completely withered)); K (Lolium multiflorum Lam.) herbicidal effect grade [12, 15]: 2 (Herbicidal ratio of 20% or more and less than 40%); F (Digitaria ciliaris) herbicidal effect grade [13, 15]: 5 (Herbicidal ratio of 90% or more (almost completely withered)); G (Setaria viridis) herbicidal effect grade [14, 15]: 4 (Herbicidal ratio of 70% or more and less than 90%)
3 | Cn1nnnc1NC(=O)c1ccc(C(F)(F)F)n2c(C(C)(C)C)nnc12 [2-027] | 5 (Herbicidal ratio of 90% or more (almost completely withered)) | 5 (Herbicidal ratio of 90% or more (almost completely withered)) | 4 (Herbicidal ratio of 70% or more and less than 90%) | 4 (Herbicidal ratio of 70% or more and less than 90%) | 5 (Herbicidal ratio of 90% or more (almost completely withered)) | 5 (Herbicidal ratio of 90% or more (almost completely withered)) | 4 (Herbicidal ratio of 70% or more and less than 90%) | 3 (Herbicidal ratio of 40% or more and less than 70%) | 5 (Herbicidal ratio of 90% or more (almost completely withered)) | 5 (Herbicidal ratio of 90% or more (almost completely withered)) | 5 (Herbicidal ratio of 90% or more (almost completely withered)) | 3 (Herbicidal ratio of 40% or more and less than 70%) | 5 (Herbicidal ratio of 90% or more (almost completely withered)) | 5 (Herbicidal ratio of 90% or more (almost completely withered)) | 
4 | COc1ccc(N(C)c2nnc3c(C(=O)Nc4nnc(C)o4)ccc(C(F)(F)F)n23)cc1 [1-165] | 0 (Herbicidal ratio of 5% or less (almost no effect)) | 4 (Herbicidal ratio of 70% or more and less than 90%) | 2 (Herbicidal ratio of 20% or more and less than 40%) | 0 (Herbicidal ratio of 5% or less (almost no effect)) | 5 (Herbicidal ratio of 90% or more (almost completely withered)) | 4 (Herbicidal ratio of 70% or more and less than 90%) | 2 (Herbicidal ratio of 20% or more and less than 40%) | 0 (Herbicidal ratio of 5% or less (almost no effect)) | 4 (Herbicidal ratio of 70% or more and less than 90%) | 3 (Herbicidal ratio of 40% or more and less than 70%) | 4 (Herbicidal ratio of 70% or more and less than 90%) | 0 (Herbicidal ratio of 5% or less (almost no effect)) | 3 (Herbicidal ratio of 40% or more and less than 70%) | 1 (Herbicidal ratio of 5% or more and less than 20%) | 
5 | CCSc1nnc2c(C(=O)Nc3nnnn3C)ccc(C(F)(F)F)n12 [2-024] | 5 (Herbicidal ratio of 90% or more (almost completely withered)) | 5 (Herbicidal ratio of 90% or more (almost completely withered)) | 4 (Herbicidal ratio of 70% or more and less than 90%) | 3 (Herbicidal ratio of 40% or more and less than 70%) | 5 (Herbicidal ratio of 90% or more (almost completely withered)) | 5 (Herbicidal ratio of 90% or more (almost completely withered)) | 5 (Herbicidal ratio of 90% or more (almost completely withered)) | 4 (Herbicidal ratio of 70% or more and less than 90%) | 5 (Herbicidal ratio of 90% or more (almost completely withered)) | 5 (Herbicidal ratio of 90% or more (almost completely withered)) | 5 (Herbicidal ratio of 90% or more (almost completely withered)) | 4 (Herbicidal ratio of 70% or more and less than 90%) | 5 (Herbicidal ratio of 90% or more (almost completely withered)) | 5 (Herbicidal ratio of 90% or more (almost completely withered)) | 
